Results published in ChEMBL document CHEMBL1201862, “PubChem BioAssay data set” (2004).
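Cultured in 96-well plates, cells were exposed to test compound for 48 hours across five concentrations. The concentration for 50% growth inhibition is given as GI50.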 The source made the active and inactive calls. No stated cut-off is given here; in the data, active = GI50 up to about 1.1 µM and inactive = higher.

Tests used:
Assay in all cases: inhibition of tumour cell growth, NCI panel, 48 h
EKVX = test system: EKVX
HCC 2998 = test system: HCC 2998
IGROV-1 = test system: IGROV-1
KM12 = test system: KM12
M14 = test system: M14
MOLT-4 = test system: MOLT-4
Malme-3M = test system: Malme-3M
NCI-H226 = test system: NCI-H226
NCI-H522 = test system: NCI-H522
OVCAR-5 = test system: OVCAR-5
RXF 393 = test system: RXF 393
SF-268 = test system: SF-268
SF-295 = test system: SF-295
SF-539 = test system: SF-539
SNB-75 = test system: SNB-75
SW-620 = test system: SW-620
UACC-62 = test system: UACC-62

Measured: GI50

CC(=O)NC(CCCCNC(=O)OCc1ccccc1)C(=O)NCc1ccccc1 (configuration not stated)
inactive: EKVX > 100 µM | HCC 2998 > 100 µM | IGROV-1 > 100 µM | KM12 > 100 µM | M14 > 100 µM | MOLT-4 > 100 µM | Malme-3M > 100 µM | NCI-H226 > 100 µM | NCI-H522 > 100 µM | OVCAR-5 > 100 µM | RXF 393 > 100 µM | SF-268 > 100 µM | SF-295 > 100 µM | SF-539 > 100 µM | SNB-75 31.7 µM | SW-620 > 100 µM | UACC-62 > 100 µM

CCOC(=O)/C(=C\c1ccc(O)c(OC)c1)C(=O)c1ccccc1
inactive: EKVX > 38.9 µM | HCC 2998 19.6 µM | IGROV-1 19.2 µM | KM12 11.6 µM | M14 19.1 µM | MOLT-4 12.4 µM | Malme-3M 18.6 µM | NCI-H226 23.2 µM | NCI-H522 7.5 µM | OVCAR-5 26.8 µM | RXF 393 22.7 µM | SF-268 9.62 µM | SF-295 18.9 µM | SF-539 13.8 µM | SNB-75 20.2 µM | SW-620 13.1 µM | UACC-62 13.7 µM

CS/C(=N/C(=O)c1ccccc1)SCCS/C(=N\C(=O)c1ccccc1)SC
inactive: EKVX > 100 µM | HCC 2998 > 100 µM | IGROV-1 > 100 µM | KM12 > 100 µM | M14 > 100 µM | MOLT-4 > 100 µM | Malme-3M > 100 µM | NCI-H226 > 100 µM | NCI-H522 69.2 µM | OVCAR-5 > 100 µM | RXF 393 73.6 µM | SF-268 > 100 µM | SF-295 > 100 µM | SF-539 65.5 µM | SNB-75 33.8 µM | SW-620 > 100 µM | UACC-62 > 100 µM

O=C1c2ccccc2C2(O)c3cc4ccccc4cc3OC12O (configuration not stated)
inactive: EKVX 41.7 µM | HCC 2998 54 µM | IGROV-1 85.7 µM | KM12 46.8 µM | M14 56.9 µM | MOLT-4 37.7 µM | Malme-3M 47.1 µM | NCI-H226 42.4 µM | NCI-H522 40.9 µM | OVCAR-5 > 100 µM | RXF 393 29.2 µM | SF-268 87.7 µM | SF-295 34.2 µM | SF-539 > 100 µM | SNB-75 49.3 µM | SW-620 > 100 µM | UACC-62 47.2 µM

CCSc1nc(-c2ccc(OC)cc2)c(C#N)c(=O)n1C1OCC(OC(C)=O)C(OC(C)=O)C1OC(C)=O (configuration not stated)
inactive: EKVX > 100 µM | HCC 2998 > 100 µM | IGROV-1 77.8 µM | KM12 > 100 µM | M14 > 100 µM | MOLT-4 43.5 µM | Malme-3M > 100 µM | NCI-H226 > 100 µM | NCI-H522 92 µM | OVCAR-5 > 100 µM | RXF 393 > 100 µM | SF-268 > 100 µM | SF-295 > 100 µM | SF-539 > 100 µM | SNB-75 65.6 µM | SW-620 > 100 µM | UACC-62 > 100 µM

COc1ccc(C(=O)O/N=C2/CCC/C2=C\c2ccccc2)cc1
inactive: EKVX > 100 µM | HCC 2998 > 100 µM | IGROV-1 > 73.6 µM | KM12 > 100 µM | M14 > 100 µM | MOLT-4 > 100 µM | Malme-3M > 100 µM | NCI-H226 > 100 µM | NCI-H522 97.3 µM | OVCAR-5 > 100 µM | RXF 393 > 83 µM | SF-268 > 81.8 µM | SF-295 > 65.8 µM | SF-539 > 59.3 µM | SNB-75 > 43.3 µM | SW-620 > 100 µM | UACC-62 > 100 µM
